According to article PMC8972196, “A Set of Experimentally Validated Decoys for the Human CC Chemokine Receptor 7 (CCR7) Obtained by Virtual Screening” (Frontiers in Pharmacology, 2022):
pIC50: −log10 of the molar value. Like-named read-outs stand apart in the source and are kept apart here.

Target: T1, human CCR7 (Homo sapiens, UniProt P32248)
T1 construct: expressed in transfected cells
T1 sequence (P32248 25-378): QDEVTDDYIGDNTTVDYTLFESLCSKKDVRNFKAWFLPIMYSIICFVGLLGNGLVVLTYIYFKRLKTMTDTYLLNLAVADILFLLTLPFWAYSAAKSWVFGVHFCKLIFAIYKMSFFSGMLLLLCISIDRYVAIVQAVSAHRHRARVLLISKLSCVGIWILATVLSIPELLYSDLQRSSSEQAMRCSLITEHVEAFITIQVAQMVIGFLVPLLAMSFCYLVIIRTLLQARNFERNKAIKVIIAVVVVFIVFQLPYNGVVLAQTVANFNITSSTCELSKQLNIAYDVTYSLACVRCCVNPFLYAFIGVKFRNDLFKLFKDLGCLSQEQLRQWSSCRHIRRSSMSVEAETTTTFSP
Experiment: CCL19-induced calcium mobilization assay, U87.CD4 cells expressing CCR7
Assay type: cell-based
Conditions: for IC50: read-out: IC50 [μM] block CCL19 induced calcium signaling
Procedure, shortened: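 Calcium mobilization was recorded in U87.CD4 cells stably carrying human CXCR2 (stimulated with CXCL8), CCR7 (stimulated with CCL19) or CCR5. Cells were plated at 20,000 cells/well, cultured overnight at 37°C in 5% CO2, and incubated 45 min at room temperature in the dark before reading.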

[1] = CCL19 induced calcium signaling
[2] = classification as decoy or active on CCR7
[3] = classification of tested compounds as decoy or active
[4] = CCL19-induced calcium signaling

Decoy – 0 Active – 1 [3]	IC50 [4]	SMILES	IC50 [1]	Decoy – 0 Active – 1 [2]	pIC50
		CCCC1(C(=O)O)CCN(C(=O)c2cccc(C)c2OC)CC1O (centres unmarked) [C207, CCCC1(C(=O)[O-])CCN(C(=O)c2cccc(C)c2OC)CC1O]	> 50 µM	0	
		CC1CCc2ccccc2C1NC(=O)CCC(=O)N1CCC(O)CC1 (centres unmarked) [C221, CC1CCc2ccccc2C1NC(=O)CCC(=O)N1CCC(O)CC1]	> 50 µM	0	
		O=C1CCCc2[nH]c(=O)c(C(=O)NC3CCc4cc(F)ccc43)cc21 (centres unmarked) [C286, O=C1CCCc2[nH]c(=O)c(C(=O)NC3CCc4cc(F)ccc43)cc21]	> 50 µM	0	
		NC(=O)CN1CC(CCN2CCCC2=O)c2ccccc21 (centres unmarked) [C214, NC(=O)CN1CC(CCN2CCCC2=O)c2ccccc21]	> 50 µM	0	
0	> 50 µM	C[C@H](c1ccccc1)N(C)CC(=O)Nc1cccc(C(=O)N(C)C)c1 [C133, C[C@H](c1ccccc1)[N@@H+](C)CC(=O)Nc1cccc(C(=O)N(C)C)c1]			
		CN1CCN(C(=O)c2ccc(CN(c3ccccc3)S(=O)(=O)c3ccccc3)cc2)CC1 [C234, C[NH+]1CCN(CC1)C(=O)c2ccc(cc2)CN(c3ccccc3)S(=O)(=O)c4ccccc4]	> 50 µM	0	
		CC1(C)CC(NC(=O)c2cc(O)c3ccccc3c2)C(C)(C)O1 (centres unmarked) [C178, CC1(C)CC(NC(=O)c2cc(O)c3ccccc3c2)C(C)(C)O1]	> 50 µM	0	
		O=C1CC(C(=O)NCc2csc3c2CCCC3)C2(CCCC2)O1 (centres unmarked) [C229, O=C1CC(C(=O)NCc2csc3c2CCCC3)C2(CCCC2)O1]	> 50 µM	0	
		Cc1ccc(S(=O)(=O)N(CC(O)CN2CCCCC2)c2ccccc2)cc1 (centres unmarked) [C244, Cc1ccc(cc1)S(=O)(=O)N(CC(C[NH+]2CCCCC2)O)c3ccccc3]	> 50 µM	0	
0	> 50 µM	Cc1nc(CCCC(=O)N[C@H]2CCN(C(C)C)C2=O)cs1 [C090, Cc1nc(CCCC(=O)N[C@H]2CCN(C(C)C)C2=O)cs1]			
		O=S(=O)(NC(c1ccccc1)c1ccccn1)c1ccc2c(c1)OCCCO2 (centres unmarked) [C252, c1ccc(cc1)C(c2ccccn2)NS(=O)(=O)c3ccc4c(c3)OCCCO4]	> 50 µM	0	
		COc1ccc(S(=O)(=O)N(CC(=O)NCc2ccccn2)Cc2ccccc2)cc1 [C259, COc1ccc(cc1)S(=O)(=O)N(Cc2ccccc2)CC(=O)NCc3ccccn3]	> 50 µM	0	
0	> 50 µM	CNC(=O)c1cccc(NC(=O)N2CC[C@@H](c3ccccc3)C2)c1C [C098, CNC(=O)c1cccc(NC(=O)N2CC[C@@H](c3ccccc3)C2)c1C]			
		Cc1ccc(S(=O)(=O)N(CCC(N)=O)Cc2ccccc2)cc1 [C258, Cc1ccc(cc1)S(=O)(=O)N(CCC(=O)N)Cc2ccccc2]	> 50 µM	0	
0	> 50 µM	CN(C)[C@H]1CCCC[C@@H]1Nc1c(NCc2cc(C(F)(F)F)cc(C(F)(F)F)c2)c(=O)c1=O [C020, O=C1C(N[C@H]2CCCC[C@@H]2N(C)C)=C(NCC3=CC(C(F)(F)F)=CC(C(F)(F)F)=C3)C1=O]			
0	> 50 µM	Cc1cccc(CN2CCC[C@H](Nc3ccc(C)c(C)c3)C2)n1 [C083, Cc1cccc(C[N@H+]2CCC[C@H](Nc3ccc(C)c(C)c3)C2)n1]			

SMILES	Decoy – 0 Active – 1 [3]	IC50 [4]	IC50 [1]	Decoy – 0 Active – 1 [2]	pIC50
CC(O)CNc1c(N2CCN(Cc3ccccc3Cl)CC2)c(=O)c1=O (centres unmarked) [C007, CC(O)CNc1c(N2CC[NH+](Cc3ccccc3Cl)CC2)c(=O)c1=O]	0				< 4.30
CN(C)S(=O)(=O)c1ccc(-c2nnc(C(=O)NCc3ccccn3)o2)cc1 [C085, CN(C)S(=O)(=O)c1ccc(-c2nnc(C(=O)NCc3ccccn3)o2)cc1]	0	> 50 µM			
Cc1ccc(NC(=O)CN(C)C[C@@H]2CCCO2)cc1[N+](=O)[O-] [C106, Cc1ccc(NC(=O)C[N@@H+](C)C[C@@H]2CCCO2)cc1[N+](=O)[O-]]	0	> 50 µM			
